Results taken from patent US7202243B2, “Substituted imidazotriazines” (Bayer HealthCare AG, priority 2002, dated 2007).

These compounds were tested against T1, PDE 10A (Homo sapiens, UniProt Q9Y233) (assay: Inhibition of PDE 10A (in vitro enzyme inhibition test, [3H]cAMP scintillation proximity assay)). Conditions: recombinant full-length PDE 10A expressed in Sf9 insect cells; substrate [5',8-3H] cAMP; 60 min at 20° C.
T1 construct: is expressed recombinantly in full length in Sf9 insect cells; made in house; host or cells: Sf9 insect cells, Bac-to-Bac baculovirus expression system
T1 sequence (Q9Y233 1-779 isoform Q9Y233-1): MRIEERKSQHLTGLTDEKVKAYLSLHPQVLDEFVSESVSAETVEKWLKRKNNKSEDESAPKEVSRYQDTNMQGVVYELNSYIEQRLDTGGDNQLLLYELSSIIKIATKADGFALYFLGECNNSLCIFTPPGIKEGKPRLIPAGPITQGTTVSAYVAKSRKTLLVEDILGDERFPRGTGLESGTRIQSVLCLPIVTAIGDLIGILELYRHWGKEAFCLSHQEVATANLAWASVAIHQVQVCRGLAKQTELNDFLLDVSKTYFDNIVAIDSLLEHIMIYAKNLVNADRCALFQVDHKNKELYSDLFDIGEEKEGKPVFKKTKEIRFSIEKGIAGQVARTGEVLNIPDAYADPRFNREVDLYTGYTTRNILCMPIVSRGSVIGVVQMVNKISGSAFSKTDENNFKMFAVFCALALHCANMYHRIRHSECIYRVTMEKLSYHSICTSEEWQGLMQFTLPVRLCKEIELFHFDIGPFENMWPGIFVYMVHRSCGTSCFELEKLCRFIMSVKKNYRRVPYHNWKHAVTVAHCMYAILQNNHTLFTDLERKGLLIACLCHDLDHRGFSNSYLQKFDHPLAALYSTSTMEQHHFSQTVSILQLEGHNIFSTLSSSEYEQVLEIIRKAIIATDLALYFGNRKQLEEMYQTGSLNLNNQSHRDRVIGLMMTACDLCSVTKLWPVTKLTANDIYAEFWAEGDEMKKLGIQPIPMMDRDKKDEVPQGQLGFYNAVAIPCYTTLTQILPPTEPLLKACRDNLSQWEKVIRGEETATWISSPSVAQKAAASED
Assay type: biochemical
Experimental: 48 h after infection, the cells are harvested and suspended in 20 ml (per 1 l of culture) of lysis buffer (50 mM tris HCl, pH 7.4, 50 mM NaCl, 1 mM MgCl2, 1.5 mM EDTA, 10% glycerol plus 20 μl of Protease Inhibitor Cocktail Set III [CalBiochem, La Jolla, Calif. USA]). The cells are treated with ultrasound at 4° C. for 1 minute and subsequently centrifuged at 10 000 rpm for 30 minutes at 4° C. The supernatant (PDE 10A preparation) was collected and stored at −20° C.
The test substances are dissolved in 100% DMSO for the determination of their in vitro action on PDE 10A and serially diluted. […] 2 μl of the diluted substance solutions in each case are introduced into the hollows of microtiter plates (Isoplate; Wallac Inc., Atlanta, Ga.). Subsequently, 50 μl of a dilution of the PDE 10A preparation described above are added. The dilution of the PDE 10A preparation is chosen such that during the later incubation less than 70% of the substrate is reacted (typical dilution: 1:10 000; dilution buffer: 50 mM tris/HCl pH 7.5, 8.3 mM MgCl2, 1.7 mM EDTA, 0.2% BSA). The substrate, [5′,8-^3H] adenosine 3′,5′-cyclic phosphate (1 μCi/μl; Amersham Pharmacia Biotech., Piscataway, N.J.) is diluted 1:2000 with assay buffer (50 mM tris/HCl pH 7.5, 8.3 mM MgCl2, 1.7 mM EDTA) to a concentration of 0.0005 μCi/μl. The enzyme reaction is finally started by addition of 50 μl (0.025 μCi) of the diluted substrate. The test batches are incubated for 60 min at 20° C. and the reaction is stopped by addition of 25 μl of a suspension containing 18 mg/ml of Yttrium Scintillation Proximity Beads (Amersham Pharmacia Biotech., Piscataway, N.J.). The microtiter plates are sealed using a film and allowed to stand for 60 min at 20° C. Subsequently, the plates are measured for 30 s per hollow in a Microbeta scintillation counter (Wallac Inc., Atlanta, Ga.). IC50 values are determined by means of graphic plotting of the substance concentration against the percentage inhibition.

| SMILES | IC50 |
| --- | --- |
| COc1cc(Oc2nc(-c3cccc(NC(C)=O)c3)nn3c(C)nc(C)c23)cc(OC)c1OC [Example 9, N-{3-[5,7-Dimethyl-4-(3,4,5-trimethoxyphenoxy)imidazo[5,1-f][1,2,4]triazin-2-yl]-phenyl}acetamide] | 0.03 µM |
| COc1cc(Nc2nc(-c3ccc(NC=O)cc3)nn3c(C)nc(C)c23)cc(OC)c1OC [Example 12, 4-{5,7-Dimethyl-4-[(3,4,5-trimethoxyphenyl)amino]imidazo[5,1-f][1,2,4]triazin-2-yl}phenylformamide] | 0.008 µM |
| COc1cc(Nc2nc(-c3ccc(NC(=O)CO)cc3)nn3c(C)nc(C)c23)cc(OC)c1OC [Example 15, N-(4-{5,7-Dimethyl-4-[(3,4,5-trimethoxyphenyl)amino]imidazo[5,1-f][1,2,4]triazin-2-yl}phenyl)-2-hydroxyacetamide] | 0.006 µM |

Next, values leading:

| IC50 | SMILES |
| --- | --- |
| 0.037 µM | COc1cc(Oc2nc(-c3ccc(NC(C)=O)cc3)nn3c(C)nc(C)c23)cc(OC)c1OC [Example 2, N-{4-[5,7-Dimethyl-4-(3,4,5-trimethoxyphenoxy)imidazo[5,1-f][1,2,4]triazin-2-yl]-phenyl}acetamide] |
| 0.043 µM | COc1cc(Nc2nc(-c3cccc(NS(C)(=O)=O)c3)nn3c(C)nc(C)c23)cc(OC)c1OC [Example 11, N-(3-{5,7-Dimethyl-4-[(3,4,5-trimethoxyphenyl)amino]imidazo[5,1-f][1,2,4]triazin-2-yl}phenyl)methanesulfonamide] |
